Consider two substances from article PMC11915509, “Small molecule inhibitors of hnRNPA2B1–RNA interactions reveal a predictable sorting of RNA subsets into extracellular vesicles” (Nucleic Acids Research, 2025).

One data set relates to hnRNPA2B1 isoform. More on the design: method as in PMID 29379020. Conditions: hnRNPA2B1 isoform ref 45; read-out: observed Kd; cited from earlier work.
In the next data set the target is T1, GST-hnRNPA2B1 (Homo sapiens, UniProt P22626).
T1 construct: purified a human full-length, GST-tagged protein expressed in Escherichia coli cells; made in house; host or cells: E. coli BL21 (DE3)
As to the kind of experiment: AlphaScreen binding kinetics with EXOmotif probe. The following applies: 30 nM GST-hnRNPA2B1, time frame of 2 h. As for the experimental part:
AlphaScreen assay was used to study the interaction between hnRNA2B1 and different biotinylated single-stranded RNA probes: EXO RNA (5′-BTeg- […]), RNA 114 (5′- BTeg-[…]), and RNA 276 (5′-B-Teg- […]). The assays were performed in OptiPlate-384-well plates (PerkinElmer, 6007299) in 20 μl final volume. The ligands were diluted in AlphaBuffer [25 mM HEPES, pH 7.4, 100 mM NaCl, 0.01% bovine serum albumin (BSA)] and tested using AlphaScreen GST Detection Kit (PerkinElmer, 6760603C). For the assay optimization, different concentrations of the RNA probes (0–100 nM) were incubated with different concentrations of GST-hnRNPA2B1 (0–60 nM) in the presence of streptavidin Donor beads and anti-GST-Acceptor beads (PerkinElmer) (20 μg/ml final concentration). […]
Figure 2. […] Dissociation constants (Kd) were determined from nonlinear regression one-site binding model in GraphPad Prism®, version 9.0. […] Association (Kon) and dissociation (Koff) rate constants and equilibrium dissociation constants (koff/kon) were determined using nonlinear regression association kinetic model of multiple ligand concentration in GraphPad Prism®, version 9.0. […] Densitometric quantification of protein fractions were normalized to the input. […] (G) Distribution of positive (EXOmotif) and negative (ARE) protein–RNA probe interactions calculated in the primary drug screening. […]

pKd: −log10 of the molar value.

T1 sequence (P22626 whole entry): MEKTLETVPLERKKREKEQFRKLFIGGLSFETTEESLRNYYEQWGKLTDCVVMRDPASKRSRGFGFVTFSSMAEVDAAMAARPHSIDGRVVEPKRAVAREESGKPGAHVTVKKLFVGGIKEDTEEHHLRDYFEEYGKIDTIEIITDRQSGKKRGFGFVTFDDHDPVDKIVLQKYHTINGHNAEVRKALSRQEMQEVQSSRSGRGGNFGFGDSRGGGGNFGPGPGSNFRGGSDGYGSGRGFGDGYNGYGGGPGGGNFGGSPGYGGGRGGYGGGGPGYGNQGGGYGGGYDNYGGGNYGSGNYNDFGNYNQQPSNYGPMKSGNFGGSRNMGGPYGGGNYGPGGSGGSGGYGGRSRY

With RNA 114: RNA oligo 5′-AAGGACUAGC, the pKd in the data set with hnRNPA2B1 isoform is 6.94.

With “EXOmotif: single-stranded RNA oligo 5′-GGGGAGGUUAGGGAGGAGGGGGGUAGGCGCC (RNA, backbone not given here)”, the “association rate constant kon” value with GST-hnRNPA2B1 was 523 664 M^−1min^−1.
